# Laboratory results reported in US20220062218A1, “COMPOSITIONS AND METHODS FOR TREATING DIABETES” (ENZYCHEM LIFESCIENCES, priority 2019, published 2022).
# Tests used:
# [1] = system: Glucose Transporter 2 (GLUT2); assay: GLUT2 plasma membrane expression in STZ-treated cells (western blotting of membrane fractions, immunofluorescence); format: cell-based, rat
# Experimental: To investigate the effect of PLAG on GLUT2 plasma membrane localization, GLUT2 expression and Racl expression in membrane fractions were examined in the same manner as the Western protein blotting (FIGS. 3A to 3B).
# In addition, the localization of GLUT2 was observed by immunofluorescence assay. Cells were grown on glass coverslips in 24-well plates and treated with STZ and PLAG. After washing with ice-cold PBS, the cells were fixed with 4% formaldehyde. Permeabilization was not performed to identify only proteins expressed in the cell membrane. The cells were incubated with anti-GLUT2 antibodies (dilution 1:500) and then stained with an Alexa Fluor 488-conjugated secondary antibody (Enzo Life Sciences, dilution 1:1000) and DAPI (Invitrogen). Stained cells were observed under a Zeiss LSM800 confocal microscope (Carl Zeiss, Jena, Germany) (FIG. 3-C).
# (§1) After treatment with PLAG and PLH(1-palmitoyl-2-linoleoyl-3-hydroxyl-rac-glycerol), apoptosis, intracellular ROS generation and glucose uptake were analyzed by flow cytometry (FIG. 7-B to 7-E). In addition, expression of GLUT2 in membrane fractions was analyzed by Western blotting (FIG.7-F). Data are presented as mean ±SD. ***P<0.001 vs. control, #P<0.05, ##P<0.005 vs. STZ. N.S.: No significance.
# INS-1 cells [2] = assay: Glucose uptake assay with 2-NBDG in INS-1 cells (flow cytometry, immunofluorescence); format: cell-based, rat
# Experimental: 2-[N-(7-nitrobenz-2-oxa-1,3-diazol-4-yl)amino]-2-deoxy-D-glucose (2-NBDG, N13195, Thermo Scientific) was used for glucose uptake assays. Glucose uptake assays were performed using 2-NBDG conjugated with fluorescent dye. Intracellular 2-NBDG was measured at 60 min (FIG. 5A) and successively calculated from 5 min to 480 min after 2-NBDG treatment by How cytometry (FIG. 5B). Serum-containing complete medium was removed, and INS-1 cells were washed in PBS. The cells were cultured in glucose-free culture media for 1 h at 37° C. and then treated with 2-NBDG. Intracellular fluorescence was measured using a BD FACS Verse flow cytometer (BD Biosciences).
# Intracellular 2-NBDG expression were also observed using immunofluorescence assay (FIG.5-C). Data are presented as mean ±SD. *P<0.05, **P<0.005, ***P<0.001 vs. control, #P<0.05, ##P<0.005 vs. STZ.
# as §1
# [3] = system: Streptozotocin (STZ)-induced diabetes model; assay: Streptozotocin (STZ)-induced diabetes model in mice: blood glucose, serum insulin, body weight, pancreas histopathology; format: in vivo
# Experimental: In order to confirm the efficacy of 1-palmitoyl-2-linoleoyl-3- acetyl-racglycerol (EC-18 or PLAG) in the treatment of diabetes disease, Streptozotocin (STZ)-induced diabetes model were used in the experiments.
# Mice were divided into four groups (control group, STZ-only treatment group, PLAG-co-treatment group, and PLAG-post-treatment group). After a 16-h fast, the three treated groups except the control group were injected intraperitoneally with STZ (200 mg/kg BW) prepared fresh in citrate buffer, wherein BW means body weight. STZ-only treatment mice received no additional treatment.
# On the same day, PLAG-co-treatment group mice began treatment with PLAG (250 mg/kg, p.o.) once daily for 3 consecutive days. The PLAG-post-treatment group received PLAG (250 mg/kg, p.o.) for 2 consecutive days beginning 1 day after STZ injection. As the PLAG, 1-palmitoyl-2-linoleoyl-3-acetyl-rac-glycerol represented by Formula 2 was used.
# Blood was collected via the retro-orbital plexus, and blood glucose levels were monitored during the experiment. Blood glucose was measured using the Accu-Chek glucometer (Roche, Seoul, Republic of Korea). FIG. 1A is a chart measuring the blood glucose of the control group and the experimental groups on the first day.
# All mice were sacrificed on day 4, last day of experiment (day 4), serum insulin was measured (FIG. 1B). Tissues of the pancreatic tissue of the control group and the experimental group were collected and fixed in 10% formalin for further analysis. During the experiment, the weight change of the control group and the experimental groups was measured (FIG. 1C).
# Pancreas tissues were fixed in 10% formalin, embedded in paraffin, and sectioned at a 4 μm thickness. For immunohistochemistry, sections were deparaffinized and […] using xylene and a graded ethanol series Staining was performed using the Real EnVision Detection System Peroxidase-DAB kit (Dako, Glostrup, Denmark) following the manufacturer's instructions, and then observed under a light microscope (Olympus, Tokyo, Japan) (FIG. 1D, 400 magnification).
# INS-1 cells [4] = assay: STZ-induced cell apoptosis in INS-1 cells, flow cytometry with annexin-V and 7-AAD; format: cell-based, rat; details: STZ-treated cells
# Experimental: The effect of PLAG on STZ-induced cell apoptosis was analyzed using flow cytometry using annexin-V and 7-AAD dye (FIGS. 2A and 2B). Cells were collected by trypsinization and washed with PBS. For cell apoptosis analyses, INS-1 cells were incubated with annexin V (BD Biosciences, Franklin Lakes, N.J., USA) for 10 min at room temperature, and stained with 7-AAD (BD Biosciences). Analysis was performed using a BD FACSVerse flow cytometer (BD Biosciences). The annexin-V and 7-AAD dyes are dyes that label apoptosis, one kind of cell death.
# as §1
# INS-1 rat insulinoma pancreas beta cells were cultured in RPMI-1640 medium (Welgene, Gyeongsangbuk-do, Republic of Korea) containing 10% fetal bovine serum (Tissue Culture Biologicals, Long Beach, Calif., USA), 50 μM β-mercaptoethanol, 100 units/mL penicillin, and 100 μg/mL streptomycin (Antibiotic-Antimycotic Solution, Welgene). The cells were grown in a humidified atmosphere with 5% CO2 at 37° C. Chemicals and reagents
# Cells were collected by trypsinization and washed with ice-cold PBS. For cell apoptosis analyses, INS-1 cells were incubated with annexin V (BD Biosciences, Franklin Lakes, N.J., USA) for 10 min at room temperature, and stained with 7-AAD (BD Biosciences). For intracellular reactive oxygen species (ROS) analyses, cells were incubated with 2 μM of DCFH-DA (2′,7′-dichlorodihydrofluorescein diacetate, Invitrogen, Carlsbad, Calif., USA) for 30 min at 37° C. The analysis was performed using a BD FACS Verse flow cytometer (BD Biosciences).
smiles,measurement,setting,value
"CCCCC/C=C\C/C=C\CCCCCCCC(=O)OC(COC(C)=O)COC(=O)CCCCCCCCCCCCCCC (racemic) [PLAG, 1-palmitoyl-2-linoleoyl-3-acetyl-rac-glycerol]","GLUT2 endocytosis / internalization, PLAG vs PLH","[1]; Example 8, membrane fractions by western blotting",endocytosis of GLUT2 was promoted
same,GLUT2 internalization (immunofluorescence),"[1]; STZ-treated cells, non-permeabilized, up to 60 min",accelerated GLUT2 internalization was observed
same,membrane-expressed GLUT2 (time course),"[1]; STZ-treated cells, western blotting of membrane fractions, up to 60 min","gradually decreased until 10 min, then recovered and returned to control levels at 60 min"
same,glucose uptake (2-NBDG time course),"INS-1 cells [2]; 5 min to 480 min after 2-NBDG treatment, flow cytometry, vs 2-NBDG alone",glucose uptake was attenuated
same,"glucose uptake (2-NBDG), PLAG vs PLH","INS-1 cells [2]; Example 8, flow cytometry",2-NBDG was slowly absorbed
same,intracellular 2-NBDG fluorescence intensity,"INS-1 cells [2]; at 60 min, flow cytometry",lower fluorescence intensity
same,intracellular 2-NBDG (immunofluorescence),INS-1 cells [2]; time course vs 2-NBDG-only treated group,increased more slowly
same,serum insulin (insulin secretion),"[3]; day 4, STZ-only group compared with control and PLAG groups (250 mg/kg p.o.)",Insulin secretion of the STZ-only treatment group is significantly lower than the control and other experimental groups
same,body weight change,"[3]; during the experiment, STZ-only group compared with control and PLAG groups (250 mg/kg p.o.)",STZ-only treatment group has a greater weight change than the control and other experimental groups
same,blood glucose,"[3]; first day, PLAG-co-treatment group, 250 mg/kg p.o. once daily, STZ 200 mg/kg i.p., vs control group",did not have a significant increase in blood glucose
same,apoptosis,INS-1 cells [4]; 10 μg/mL of PLAG,~50%
same,apoptosis,INS-1 cells [4]; 100 μg/mL PLAG,~30%
same,"decrease of cell apoptosis, PLAG vs PLH",INS-1 cells [4]; Example 8,more effective than PLH
